# pIC50: −log10 of the molar value. Structures can show the parent of a compound that is named as a salt.
# Test system: Huh7 cells expressing a subgenomic RNA replicon of Con1 (genotype 1b) sequence origin
# Assay: microbe, parasite or virus in culture
# Settings: Hepatitis C virus, Huh-7
row,Structure (SMILES),pIC50
1,"CN1[C@@H]2CC[C@H]1C[C@@H](OC1c3ccccc3CCc3ccccc31)C2 [Deptropine (e.g., citrate), deptropine, reference compound]",4.95
2,"N[C@H](Cc1cc(I)c(Oc2cc(I)c(O)c(I)c2)c(I)c1)C(=O)O [Dextrothyroxine (e.g., sodium), dextrothyroxine, reference compound]",5.30
3,"CCCCOc1cc(C(=O)NCCN(CC)CC)c2ccccc2n1 [Dibucaine (e.g., hydrochloride), Dibucaine, reference compound]",5.18
4,"C/C=C(/C(=C/C)c1ccc(O)cc1)c1ccc(O)cc1 [Dienestrol, reference compound]",4.78
5,"C[C@H]1[C@@H](O)O[C@@H]2O[C@@]3(C)CC[C@H]4[C@H](C)CC[C@@H]1[C@@]24OO3 [Dihydroartemisinin, dihydroartemisinin, reference compound]",5.41
6,"CN1C[C@H](C(=O)N[C@]2(C)O[C@@]3(O)[C@@H]4CCCN4C(=O)[C@H](Cc4ccccc4)N3C2=O)C[C@@H]2c3cccc4[nH]cc(c34)C[C@H]21 [Dihydroergotamine (e.g., mesylate), dihydroergotamine, reference compound]",4.64
7,"COc1cc(C(=O)OCCCN2CCCN(CCCOC(=O)c3cc(OC)c(OC)c(OC)c3)CC2)cc(OC)c1OC [Dilazep (e.g., dihydrochloride), Dilazep, reference compound]",4.86
8,"OC(CCCN1CCCCC1)(c1ccccc1)c1ccccc1 [Diphenidol (e.g., hydrochloride), Diphenidol, reference compound]",4.59
9,"CCN(CC)C(=S)SSC(=S)N(CC)CC [Disulfiram, reference compound]",5.26
10,"CC(=O)[C@H]1CC[C@H]2[C@@H]3C=CC4=CC(=O)CC[C@@]4(C)[C@@H]3CC[C@]12C [Dydrogesterone, reference compound]",5.56
11,"CCc1cn([C@H]2C[C@H](O)[C@@H](CO)O2)c(=O)[nH]c1=O [Edoxudine, edoxudine, reference compound]",5.71
12,"O=C1Nc2ccc(Cl)cc2[C@@](C#CC2CC2)(C(F)(F)F)O1 [Efavirenz, efavirenz, reference compound]",4.81
13,"CC[C@H]1CN2CCc3cc(OC)c(OC)cc3[C@@H]2C[C@@H]1C[C@H]1NCCc2cc(OC)c(OC)cc21 [Emetine (e.g., dihydrochloride hydrate), Emetine, reference compound]",7.52
14,"O=CN/C=C/c1cc(O)ccc1O [Erbstatin, reference compound]",5.12
15,"CCN(CC)CCO[C@H]1CC[C@@]2(C)C(=CC[C@@H]3[C@@H]2CC[C@]2(C)C(=O)CC[C@@H]32)C1 [Example U18666A, reference compound]",7.70
16,"C=C1C[C@@H]2[C@H](CC[C@]3(C)C(=O)CC[C@@H]23)[C@@]2(C)C=CC(=O)C=C12 [Exemestane, reference compound]",4.54
17,"O=C1C(CC[C@@H](O)c2ccc(F)cc2)[C@@H](c2ccc(O)cc2)N1c1ccc(F)cc1 (stereo partly drawn) [Ezetimibe, ezitamibe, reference compound]",5.38
18,"O=C1c2ccccc2-[n+]2ccc3c([nH]c4ccccc43)c21 [Fascaplysin, reference compound]",6.35
19,"COC(=O)Nc1nc2ccc(Sc3ccccc3)cc2[nH]1 [Fenbendazole, reference compound]",6.38

row,Structure (SMILES),pIC50
1,"CC1=C(/C=C/C(C)=C/C=C/C(C)=C/C(=O)Nc2ccc(O)cc2)C(C)(C)CCC1 [Fenretinide, reference compound]",5.65
2,CC(C)C(C(=O)OC(C#N)c1cccc(Oc2ccccc2)c1)c1ccc(Cl)cc1 (stereo not drawn) [Fenvalerate],4.72
3,"O=c1[nH]c(=O)n([C@H]2C[C@H](O)[C@@H](CO)O2)cc1F [Floxuridine, floxuridine, reference compound]",8.35
4,"COC(=O)Nc1nc2cc(C(=O)c3ccc(F)cc3)ccc2[nH]1 [Flubendazole, reference compound]",6.76
5,"Nc1nc(F)nc2c1ncn2[C@@H]1O[C@H](CO)[C@@H](O)[C@@H]1O [Fludarabine, reference compound]",5.35
6,"O=c1[nH]cc(F)c(=O)[nH]1 [Fluorouracil, reference compound]",4.73
7,"CC(C)n1c(/C=C/C(O)CC(O)CC(=O)O)c(-c2ccc(F)cc2)c2ccccc21 (stereo not drawn) [Fluvastatin (e.g., sodium), fluvastatin, reference compound]",4.65
8,"COCCCC/C(=N\OCCN)c1ccc(C(F)(F)F)cc1 [Fluvoxamine (e.g., maleate), Fluvoxamine, reference compound]",4.62
9,"C[C@]12CC[C@@H]3c4ccc(O)cc4C[C@@H](CCCCCCCCC[S+]([O-])CCCC(F)(F)C(F)(F)F)[C@H]3[C@@H]1CC[C@@H]2O (stereo partly drawn) [Fulvestrant, reference compound]",5.52
10,"Nc1ccn([C@@H]2O[C@H](CO)[C@@H](O)C2(F)F)c(=O)n1 [Gemcitabine (e.g., hydrochloride), Gemcitabine, reference compound]",7.22
11,"COC1=CC(=O)C[C@@H](C)[C@]12Oc1c(Cl)c(OC)cc(OC)c1C2=O [Griseofulvin (e.g., microcrystalline), Griseofulvin, reference compound]",4.94
12,"CC1(C)O[C@@H]2C[C@H]3[C@@H]4CCC5=CC(=O)CC[C@]5(C)[C@@]4(F)[C@@H](O)C[C@]3(C)[C@]2(C(=O)CCl)O1 [Halcinonide, halcinonide, reference compound]",4.76
13,"Oc1ccc(O)cc1 [Hydroquinone, reference compound]",4.85
14,"CC(C(O)c1ccc(O)cc1)N1CCC(Cc2ccccc2)CC1 (stereo not drawn) [Ifenprodil (e.g., tartrate), Ifenprodil, reference compound]",5.33
15,"CN(C)CCCN1c2ccccc2CCc2ccccc21 [Imipramine (e.g., hydrochloride), Imipramine, reference compound]",4.77
16,"CC1(C)C(/C=C/C=C/C=C/C=C2\N(CCCCS(=O)(=O)O)c3ccc4ccccc4c3C2(C)C)=[N+](CCCCS(=O)(=O)[O-])c2ccc3ccccc3c21 [Indocyanine Green, reference compound]",5.09
17,"CCc1c2c(nc3ccc(OC(=O)N4CCC(N5CCCCC5)CC4)cc13)-c1cc3c(c(=O)n1C2)COC(=O)[C@]3(O)CC [Irinotecan (e.g., hydrochloride), irinotecan (CPT-11), reference compound]",5.81
18,"O=c1cc(N2CCOCC2)oc2c(-c3ccccc3)cccc12 [LY 294002, reference compound]",5.47
19,"N[C@@H](Cc1cc(I)c(Oc2cc(I)c(O)c(I)c2)c(I)c1)C(=O)O [Levothyroxine (e.g., sodium), Levothyroxine, reference compound]",5.42

row,Structure (SMILES),pIC50
1,"CCN(CCCCOC(=O)c1ccc(OC)c(OC)c1)C(C)Cc1ccc(OC)cc1 (stereo not drawn) [Mebeverine (e.g., hydrochloride), Mebeverine, reference compound]",4.83
2,"Cc1cccc(CN2CCN(C(c3ccccc3)c3ccc(Cl)cc3)CC2)c1 (stereo not drawn) [Meclizine, meclizine, reference compound]",4.84
3,"N[C@@H](Cc1ccc(N(CCCl)CCCl)cc1)C(=O)O [Melphalan, reference compound]",5.23
4,"COc1ccc(O)cc1 [Mequinol, reference compound]",4.73
5,"COc1cc(NC(=O)Nc2cccc(CNC(=O)O[C@H]3CCOC3)c2)ccc1-c1cnco1 [Merimepodib (VX-497), merimepodib, reference compound]",6.32
6,"CN1CCCCC1CCN1c2ccccc2Sc2ccc([S+](C)[O-])cc21 (stereo not drawn) [Mesoridazine (e.g., Besylate), mesoridazine, reference compound]",4.72
7,"C[C@H]1CC(=O)C[C@@H]2CC[C@H]3[C@@H]4CC[C@H](O)[C@@]4(C)CC[C@@H]3[C@]21C [Mesterolone, mesterolone, reference compound]",5.29
8,"CC(C=NNC(=N)N)=NNC(=N)N [Methylglyoxal bis(guanylhydrazone) dihydrochloride hydrate, reference compound]",4.97
9,"C[C@]12CCC(=O)C=C1CC[C@@H]1[C@@H]2CC[C@@]2(C)[C@H]1CC[C@]2(C)O [Methyltestosterone, methyltestosterone, reference compound]",4.72
10,"CC[C@H](C)C(=O)O[C@H]1CCC=C2C=C[C@H](C)[C@H](CC[C@@H]3C[C@@H](O)CC(=O)O3)[C@H]21 [Mevastatin, reference compound]",5.46
11,"CCCCC1C(=O)NN(c2ccccc2)C1=O (stereo not drawn) [Mofebutazone, mofebutazone, reference compound]",4.84
12,"Oc1ccc(OCc2ccccc2)cc1 [Monobenzone, reference compound]",5.80
13,"CCOc1cc(N)c(Cl)cc1C(=O)NCC1CN(Cc2ccc(F)cc2)CCO1 (stereo not drawn) [Mosapride (e.g., citrate), mosapride, reference compound]",4.96
14,"COc1c(C)c2c(c(O)c1C/C=C(\C)CCC(=O)O)C(=O)OC2 [Mycophenolic Acid, Mycophenolic acid, reference compound]",6.12
15,"CC[C@@H](C(=O)O)[C@@H]1O[C@@H]([C@@H](C)[C@H](O)[C@H](C)C(=O)[C@H](CC)[C@H]2O[C@]3(C=C[C@@H](O)[C@]4(CC[C@@](C)([C@H]5CC[C@](O)(CC)[C@H](C)O5)O4)O3)[C@H](C)C[C@@H]2C)[C@@H](C)C[C@@H]1C [Narasin, reference compound]",6.75
16,"Cc1c(O)cccc1C(=O)N[C@@H](CSc1ccccc1)[C@H](O)CN1C[C@H]2CCCC[C@H]2C[C@H]1C(=O)NC(C)(C)C [Nelfinavir (e.g., mesylate), nelfinavir, reference compound]",5.37
17,"CC(=O)Oc1ccccc1C(=O)Nc1ncc([N+](=O)[O-])s1 [Nitazoxanide, nitazoxanide, reference compound]",4.85
18,"COc1ccc2c(c1OC)C(=O)O[C@@H]2[C@H]1c2c(cc3c(c2OC)OCO3)CCN1C [Noscapine, reference compound]",4.80
19,"CCCCC(CC)COC(=O)/C=C/c1ccc(OC)cc1 (stereo not drawn) [Octyl Methoxycinnamate, reference compound]",5.91
